Test results from publication PMC12535076, “Neurotherapeutic effects of Vutiglabridin as a Paraoxonase-2 modulator in preclinical models of Parkinson’s disease” (Molecular Neurodegeneration, 2025).

Tests used:
[1] = system: Sprague-Dawley rats; experiment: Functional observational battery (FOB) evaluation; assay type: in vivo, rat; settings: male SD rats, single oral 500, 1000, 2000 mg/kg; 0.5, 1, 3, 6, 24 h
Protocol: To further investigate the potential neurotoxicity of Vuti in vivo, a standard functional observational battery (FOB) evaluation was performed. Male Sprague-Dawley rats were administered single high doses of Vuti – 500, 1000, and 2000 mg/kg. Subsequently, two observers blindly scored the behavior of animals in the home cage, open field, hand-held, and sensory-motor function at time points of 0.5, 1, 3, 6, and 24 h.
Male 6-week-old Sprague-Dawley Rat was orally administered with 0, 500, 1000, or 2000 mg/kg of Vuti (n = 8 per group). Two observers performed blind observations following the standard guideline (3) at 0.5, 1-, 3-, 6-, and 24-hours post-dose on the basis of the pharmacokinetics parameters. […] NC = No change, NSC = No statistically significant change.

[2] = target: T1, MAO-A (Homo sapiens, UniProt P21397); experiment: ROS Glo based MAO-A enzyme activity assay; assay type: biochemical; settings: printed as 'separate MAO-B assay' within the MAO-A panel (b); read-out: IC50, ROS-Glo method, panel (b)
T1 sequence (P21397 1-527): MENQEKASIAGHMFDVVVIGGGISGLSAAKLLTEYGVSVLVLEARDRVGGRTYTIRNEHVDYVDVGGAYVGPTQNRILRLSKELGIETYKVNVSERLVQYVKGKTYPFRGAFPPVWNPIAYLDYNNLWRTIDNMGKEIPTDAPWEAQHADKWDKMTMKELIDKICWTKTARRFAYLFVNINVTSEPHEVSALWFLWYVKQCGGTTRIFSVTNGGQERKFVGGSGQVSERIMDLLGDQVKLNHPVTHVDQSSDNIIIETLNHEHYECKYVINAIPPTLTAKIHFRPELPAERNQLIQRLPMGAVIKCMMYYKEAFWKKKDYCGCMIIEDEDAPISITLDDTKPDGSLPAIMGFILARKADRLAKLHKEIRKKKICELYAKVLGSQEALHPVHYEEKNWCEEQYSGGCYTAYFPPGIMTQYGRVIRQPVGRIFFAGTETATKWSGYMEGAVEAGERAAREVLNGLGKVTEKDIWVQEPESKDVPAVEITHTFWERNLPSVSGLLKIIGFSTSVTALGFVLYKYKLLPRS
Protocol: An enzyme solution was prepared by diluting 10 µL of a 2.5 mg/mL MAO-A or MAO-B stock in 10 mL of 50 mM sodium phosphate buffer (pH 7.4). A substrate solution was prepared by diluting 200 µL of a 100 mM benzylamine (or tyramine) stock in 10 mL phosphate buffer to achieve a final concentration of 1 mM. For each 96-well plate experiment, 12.5 µL of a 1× H2O2 probe solution was added to 1 mL of the probe dilution buffer from the ROS Glo™ kit. Separately, 40 µL of cysteine and enhancer were diluted into 4 mL of Luciferin solution. In each well, 49 µL of the enzyme solution was dispensed, followed by 1 µL of the test compound, and incubated for 30 min. Then, 49 µL of the substrate solution was added, and the reaction proceeded at 37 °C for 60 min. Next, 10 µL of the H2O2 probe solution was added and incubated for 15 min. Subsequently, 40 µL of a luciferin solution containing cysteine and an enhancer was added, followed by an additional 30-minute incubation at 37 °C. Luminescence was subsequently recorded using a microplate luminescence reader (SpectraMax i3, Molecular Devices).

[3] = target: T2, PON2 in mouse brain tissue (Mus musculus, UniProt Q62086); experiment: Cellular thermal shift assay (CESTA) of PON2 in brain tissue; assay type: binding
T2 construct: Brain tissue pieces were pulverized under frozen conditions in a mortar with liquid nitrogen; from tissue; host or cells: brain tissue of mice dosed orally with vehicle or Vuti for 5 days
Protocol: Interaction of PON2 and Vuti in mouse brain tissue was evaluated by Cellular Thermal Shift Assay (CESTA®) in vivo [65] (Pelago Bioscience AB, Solna, Sweden). Briefly, mice were orally administered vehicle or Vuti at 50 mg/kg (Vuti 50) or 100 mg/kg (Vuti 100) for 5 days. Brain tissue pieces were pulverized under frozen conditions in a mortar with liquid nitrogen. Equal amounts of tissue powder were placed into 8 or 12 separate PCR strip tubes for each set of the treated tissues and kept frozen until heat challenged. Pre-heated 60 µl HBSS buffer was added to the tubes and samples were immediately subjected to an 8 or 12-step heat challenge for 3 min between 37 °C and 59 °C. Samples were then snap-frozen in liquid nitrogen and lysed by freeze-thawing. After the first round of freeze thawing 1% Brij 35 was added to the samples and the samples were incubated with shaking for 20 min at 4 °C before the two last rounds of freeze thawing. After centrifugation at 20 000 x g for 20 min, 35 µl of the supernatant was mixed with 17,5 µl gel loading buffer (NuPAGE LDS sample buffer, Thermo Fisher Scientific, Waltham, MA, USA). Total protein lysate (6 µg) was separated on 12% SDS-PAGE gels. […] Western Blot detected PON2 protein (abcam, ab183718) normalized to SOD-1, a temperature stable protein band observed in the full protein gel detection with house-keeping gene.

[4] = Octanol-water partition coefficient measurement; assay type: physicochemical; settings: octanol / pH 7.4 phosphate buffer, octanol / pH7.4 phosphate buffer, room temperature 24 h, aqueous phase below LOQ, LOQ value used, read-out: octanol-water partition coefficient (log D)
Protocol: 1000 µg/mL of Vuti was mixed with octanol, and an aliquot of 2 mL was mixed with the same amount of aliquot of 2 mL of pH7.4 phosphate buffer. The mixed solution was shaken at room temperature for 24 h, and the aqueous and octanol phase was separately analyzed for Vuti concentration via HLPC. The limit of quantification (LOQ) was 0.2012 µg/ml. Three replicates were performed. Because no concentration was detected in the aqueous phase, LOQ value was used; the actual concentration in the aqueous phase is expected to be lower than LOQ. The octanol-water partition coefficient Log D was calculated as log of concentration in octanol phase divided by concentration in aqueous phase.
(a) Measurement of Vuti concentration in octanol and aqueous phase (pH7.4 phosphate buffer) via HPLC. The mean value of three replicates was used, and the limit of quantification (LOQ) value was used to calculate Log D as a log of concentration in the octanol phase divided by the concentration in the aqueous phase. (b) Efflux ratios (Papp(B→A)/Papp(A→B)) of Vuti in three types of cell monolayers, with or without P-glycoprotein (P-gp) inhibitor GF120918. (c) Schematic of 14C-labeling of Vuti. Attachment to the ethoxy group is warranted because it is robustly maintained throughout metabolism. (d) Plasma radioactivity concentration in Sprague-Dawley rats after a single administration of 10 mg/kg of 14C-Vuti (n = 3).

T2 sequence (Q62086 whole entry): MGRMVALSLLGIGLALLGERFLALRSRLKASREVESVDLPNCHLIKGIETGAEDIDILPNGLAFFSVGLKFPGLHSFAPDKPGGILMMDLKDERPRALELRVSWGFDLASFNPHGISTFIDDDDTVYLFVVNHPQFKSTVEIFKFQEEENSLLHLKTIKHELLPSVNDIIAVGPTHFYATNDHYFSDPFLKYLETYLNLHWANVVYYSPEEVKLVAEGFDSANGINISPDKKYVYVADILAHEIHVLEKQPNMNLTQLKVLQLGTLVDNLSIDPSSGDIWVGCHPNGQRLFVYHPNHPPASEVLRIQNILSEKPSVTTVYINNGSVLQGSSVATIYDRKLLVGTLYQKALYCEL

In the case of `CCOc1ccc(C2COc3c(ccc4c3CCC(C)(C)O4)C2)c(O)c1` (centres unmarked) [Vuti, Vutiglabridin], the “behaviors in FOB (home cage, open field, hand-held, sensory-motor function)” value [1] is reported as “did not induce statistically significant changes”, the IC50 [2] is reported as 24.7 µM and the “increase of the Tm of PON2 over vehicle group” value ([3]; Vuti 50 mg/kg for 5 days (Vuti 50)) is reported as “approximately 1.3 °C”. The “increase of the Tm of PON2 over vehicle group” value ([3]; Vuti 100 mg/kg for 5 days (Vuti 100)) was ~1.4 °C and the logD at 24 h [4] was > 3.69.
